A short description of data set [1]: Partition of marker compound between water and gasoline phases. The format is physicochemical. To be noted: for Initial Fluorescence Intensity in Water Phase / Fluorescence Intensity in Water Phase After Partition: gasoline, excitation 540 nm, emission 590 nm; for Initial Fluorescence Intensity in Water Phase: 10 ppb marker; for Fluorescence Intensity in Water Phase After Partition: not background corrected; for Partition Ratio (Kd): water/gasoline, corrected for background. The procedure: (§1) In this Example, the separation/partition of the marker compound between water and fuel phases was measured. The procedure for this Example included: measure fluorescence of 10 grams of water phase with and without marker compound present to determine background fluorescence. Then, 10 grams of hydrocarbon including 10 ppb of marker compound was added to the water and gently agitated for 1 minute. After mixing, the sample was allowed to completely separate into two phases. Thereafter, the fluorescence of the water phase was re-measured. Since the marker concentration is directly proportional to fluorescence intensity (at 10 ppb and within a range of interest), the Partition Ratio can be calculated from the initial and final tracer fluorescence intensities (corrected for any background fluorescence) from the water phase.
(§2) For this Example, Rhodamine B, Rhodamine 101, and Fluorescein marker compounds were used. For Rhodamine 101 and Rhodamine B measurements, excitation wavelength was 540 nm and emission wavelength was 590 nm. For Fluorescein measurements, excitation wavelength was 470 nm and emission wavelength was 515 nm.

The nature of data set [2]: Partition of marker compound between water and heptane phases. To be noted: for Initial Fluorescence Intensity in Water Phase / Fluorescence Intensity in Water Phase After Partition: heptane, excitation 540 nm, emission 590 nm; for Initial Fluorescence Intensity in Water Phase: 10 ppb marker; for Fluorescence Intensity in Water Phase After Partition: not background corrected; for Partition Ratio (Kd): water/heptane, corrected for background. The format is physicochemical. The procedure:
as §1, §2

The record followed here is patent US12169192B2, “Methods of identifying a hydrocarbon fuel” (Afton Chemical Corporation, priority 2020, dated 2024).

Consider `O=C([O-])c1ccccc1C1=c2cc3c4c(c2Oc2c1cc1c5c2CCCN5CCC1)CCC[N+]=4CCC3` [Rhodamine 101], for which, in data set [1], the “Initial Fluorescence Intensity in Water Phase” value (“Initial Fluorescence Intensity” for short) worked out at 73.5 arb units, the “Fluorescence Intensity in Water Phase After Partition” value is recorded as 12.5 arb units and the “Partition Ratio (Kd)” value is listed as 0.20. Also, in data set [2], the “Initial Fluorescence Intensity” value amounted to 73 arb units, the “Fluorescence Intensity in Water Phase After Partition” value turned out to be 20 arb units and the “Partition Ratio (Kd)” value turned out to be 0.35.

As to `CCN(CC)c1ccc2c(-c3ccccc3C(=O)O)c3ccc(=[N+](CC)CC)cc-3oc2c1.[Cl-]` [Rhodamine B], in data set [1], the “Initial Fluorescence Intensity” value is listed as 71.5 arb units, the “Fluorescence Intensity in Water Phase After Partition” value is reported as 13 arb units and the “Partition Ratio (Kd)” value worked out at 0.21. Further, in data set [2], the “Initial Fluorescence Intensity” value turned out to be 75 arb units, the “Fluorescence Intensity in Water Phase After Partition” value was 21.5 arb units and the “Partition Ratio (Kd)” value was found to be 0.38.
